Results: PMC7198601, “Side chain effect in the modulation of αvβ3/α5β1 integrin activity via clickable isoxazoline-RGD-mimetics: development of molecular delivery systems” (Scientific Reports, 2020)
Like-named read-outs stand apart in the source and are kept apart here.

What was measured:
αvβ3 integrin [1] = target: T1, αvβ3 integrin (Homo sapiens, UniProt P05106+P06756); test: Cell adhesion assay: SK-MEL-24 cells to immobilized fibronectin (αvβ3 integrin-mediated); conditions: for αvβ3 behaviour (agonist/antagonist): SK-MEL-24 cell adhesion to fibronectin
Method: (§1) The ability of the synthesized racemic ligands to inhibit the adhesion of K562 cells (human erythroleukemic cells, expressing α5β1 integrin) or SK-MEL-24 cells (human malignant melanoma cells, expressing αvβ3 integrin) to immobilized fibronectin was evaluated[29]. […] In these experiments, the cells were seeded onto plates coated with fibronectin and allowed to adhere before quantitation of the number of adherent cells, in presence of increasing concentrations of the compounds.
(§2) SK-MEL-24 (American Tissue Culture Collection, ATCC, Rockville, MD) were routinely grown in minimum essential medium (MEM, Cambrex, Walkersville, MD) supplemented with 10% fetal bovine serum (FBS), nonessential amino acids, and sodium pyruvate. K-562 (ATCC, Rockville, MD) were maintained as a stationary suspension culture in RPMI-1640 and L-glutamine with 10% FBS (Invitrogen (Carlsbad, CA). Cells were kept at 37 °C in a 5% CO2 humidified atmosphere. Forty hours before experiments, K-562 were treated with 25 ng/mL PMA (Sigma-Aldrich SRL, Milan, Italy) to induce differentiation and to increase expression of cell surface antigens[50].
(§3) Plates (96 wells) (Corning Costar, Celbio, Milan,Italy) were coated by passive adsorption with fibronectin (10 µg/mL) or poly-L-lysine (0.002%) (Sigma-Aldrich SRL) overnight at 4 °C. Cells were counted with a haemocytometer and pre-incubated with different concentrations of each compound or with the vehicle (methanol) for 30 min at room temperature to reach a ligand-receptor equilibrium. Stock solutions (10^–2 M) of the assayed compounds were prepared in phosphate-buffered saline (PBS). […] This product is a chromogenic substrate for β-N-acetylglucosaminidase that is transformed in 4-nitrophenol whose absorbance can be measured at 405 nm. As previously described[51], there is a linear correlation between absorbance and enzymatic activity. Therefore, it is possible to identify the number of adherent cells among treated wells, interpolating the absorbance values of unknowns in a calibration curve. The reaction was blocked by addition of 100 µL of a stopping solution [50 µM glycine and 5 µM EDTA (pH 10.4)], and the plates were read in an EnSpire Multimode Plate Reader (PerkinElmer, Waltham, MA, USA). Experiments were carried out in quadruplicate and repeated at least three times. Data analysis and IC50/EC50 values were calculated using Graph-Pad Prism 5.0 (GraphPad Software, San Diego, CA).

α5β1 integrin [2] = target: T2, α5β1 integrin (Homo sapiens, UniProt P05556+P08648); test: Cell adhesion assay: K562 cells to immobilized fibronectin (α5β1 integrin-mediated); conditions: for α5β1 behaviour (agonist/antagonist): K562 cell adhesion to fibronectin
Method: as §1, §2, §3

[3] = test system: α5β1 integrin-mediated phosphorylation of ERK1/2; test: α5β1 integrin-mediated ERK1/2 phosphorylation in K562 cells (Western blot); format: cell-based, human; conditions: K562 cells not incubated with fibronectin, compound 10^−7–10^−9 M
Method: The mechanism by which components of extracellular matrix generate intracellular signalling through integrins requires indeed an increased phosphorylation of cytoplasmatic second messengers. Phosphorylation of ERK1/2 plays a central role in fibronectin-mediated survival signalling through integrins: in fact, cell adhesion activates ERK1/2 by binding of α5β1 integrins at the cell surface to extracellular matrix proteins such as fibronectin. The experiment was performed by serum-starving K562 cells in RPMI-1640 containing 1% FBS for 16 h; thereafter, they were preincubated with compound 17b, 24 (10^−7–10^−9 M) or the vehicle for 60 minutes and then plated for 60 minutes on fibronectin.
Figure 2 (a) Cropped blots related to the effect of compounds 17b and 24 on α5β1 integrin-mediated phosphorylation of ERK1/2 in K562 cells. Cells were serum-starved in RPMI-1640 containing 1% FBS for 16 h; then cells were preincubated with different concentrations of the antagonist 17b (10^−7–10^−9 M) or its vehicle for 1 h in suspension and then were allowed to adhere for 1 h on fibronectin (FN). […] Thereafter cells were lysed and lysates were analysed in Western blot using an antibody directed against phosphorylated ERK1/2 (pERK1/2) or total ERK1/2 (totERK1/2). […]
K562 cells were incubated in RPMI-1640 with 1% FBS for 16 h. […] Digital images were acquired and analyzed following previously reported methods.

α5β1 integrin [4] = target: T2, α5β1 integrin; test: α5β1 integrin internalization by confocal microscopy in HEK293 + α5-EGFP cells; format: cell-based; conditions: compound 1 µM, no fibronectin
From the text: Integrin trafficking is an important mechanism employed by cells to regulate integrin–extracellular matrix interactions, and thus cellular signalling, during processes such as cell migration and invasion. α5β1 integrin is internalized, trafficked to recycling endosomes and then recycled to the plasma membrane[43],[44]. Membrane trafficking pathways influence α5β1’s ability to promote invasion and metastasis[45],[46]. […]
HEK293 cells (not expressing α5 but endogenously expressing β1 integrin[47],[48] were plated in 6 well plates and at 50–60% confluence were transiently transfected with α5-EGFP plasmid using Lipofectamine2000 transfection reagent (LifeTechnologies). After 48 h from transfection, HEK293 + α5-EGFP cells were assessed to verify integrins expression by flow cytometry (data not shown). α5-EGFP integrin plasmid was a kind gift from Michael Davidson (Addgene plasmid #56423). HEK293 + α5-EGFP cells were treated at 4 °C with fibronectin (10 µg/ml) or the agonist 24 (1 µM) in MEM for 1 hour. Cells exposed to the antagonist 17b (1 µM), before the addition of fibronectin, were pre-incubated with the compound for 20 minutes at 4 °C. […]
Specimens were embedded in Mowiol and analyzed using a Nikon C1s confocal laser-scanning microscope, equipped with a Nikon PlanApo 60×, 1.4-NA oil immersion lens. […]

α5β1 integrin [5] = target: T2, α5β1 integrin; set-up: K562 cells (human erythroleukemic cells, expressing α5β1 integrin); endogenous in cells; host or cells: K-562 (ATCC), treated with PMA 40 h before the experiments; conditions: cited from earlier work; for IC50: cell adhesion assay, Figure 1, ref ChemMedChem 2011, 6, 2264–2272; for α5β1 behaviour (agonist/antagonist): reference compounds, entries 11-17, 41 (table footnotes b-f)
αvβ3 integrin [6] = target: T1, αvβ3 integrin; set-up: SK-MEL-24 cells (human malignant melanoma cells, expressing αvβ3 integrin); endogenous in cells; host or cells: SK-MEL-24 (ATCC); conditions: cited from earlier work; for IC50: cell adhesion assay, Figure 1, ref ChemMedChem 2011, 6, 2264–2272; for αvβ3 behaviour (agonist/antagonist): reference compounds, entries 11-19, Dechantsreiter et al. (table footnotes b-h)

T2 sequence (P08648 42-894 limits assumed): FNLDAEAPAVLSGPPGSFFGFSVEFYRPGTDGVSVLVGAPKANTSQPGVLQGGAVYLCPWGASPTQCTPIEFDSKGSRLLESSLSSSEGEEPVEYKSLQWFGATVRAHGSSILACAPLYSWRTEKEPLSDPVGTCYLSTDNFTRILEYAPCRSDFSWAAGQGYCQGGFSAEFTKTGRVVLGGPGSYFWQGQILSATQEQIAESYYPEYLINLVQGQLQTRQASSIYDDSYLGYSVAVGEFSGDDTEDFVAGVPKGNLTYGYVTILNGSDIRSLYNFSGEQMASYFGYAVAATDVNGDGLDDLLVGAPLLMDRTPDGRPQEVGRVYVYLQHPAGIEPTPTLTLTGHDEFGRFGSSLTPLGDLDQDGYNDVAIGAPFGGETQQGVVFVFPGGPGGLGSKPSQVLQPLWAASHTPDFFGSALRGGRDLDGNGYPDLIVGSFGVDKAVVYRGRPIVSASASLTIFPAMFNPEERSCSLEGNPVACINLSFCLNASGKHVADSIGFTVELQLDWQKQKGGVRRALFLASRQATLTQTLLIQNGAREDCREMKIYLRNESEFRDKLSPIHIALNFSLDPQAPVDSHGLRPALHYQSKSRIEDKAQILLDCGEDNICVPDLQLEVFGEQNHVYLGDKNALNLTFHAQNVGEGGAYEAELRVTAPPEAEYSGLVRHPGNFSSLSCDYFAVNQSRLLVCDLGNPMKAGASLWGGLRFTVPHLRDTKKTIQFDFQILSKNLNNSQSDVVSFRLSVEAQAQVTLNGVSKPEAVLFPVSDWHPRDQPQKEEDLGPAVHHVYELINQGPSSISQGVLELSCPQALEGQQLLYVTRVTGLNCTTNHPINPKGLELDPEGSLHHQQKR
T2 sequence (P08648 895-1049 partner limits assumed): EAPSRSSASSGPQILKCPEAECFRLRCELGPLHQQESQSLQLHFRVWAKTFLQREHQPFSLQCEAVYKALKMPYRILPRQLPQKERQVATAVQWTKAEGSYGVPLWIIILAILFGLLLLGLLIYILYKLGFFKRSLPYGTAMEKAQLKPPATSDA
T2 sequence (P05556 21-798): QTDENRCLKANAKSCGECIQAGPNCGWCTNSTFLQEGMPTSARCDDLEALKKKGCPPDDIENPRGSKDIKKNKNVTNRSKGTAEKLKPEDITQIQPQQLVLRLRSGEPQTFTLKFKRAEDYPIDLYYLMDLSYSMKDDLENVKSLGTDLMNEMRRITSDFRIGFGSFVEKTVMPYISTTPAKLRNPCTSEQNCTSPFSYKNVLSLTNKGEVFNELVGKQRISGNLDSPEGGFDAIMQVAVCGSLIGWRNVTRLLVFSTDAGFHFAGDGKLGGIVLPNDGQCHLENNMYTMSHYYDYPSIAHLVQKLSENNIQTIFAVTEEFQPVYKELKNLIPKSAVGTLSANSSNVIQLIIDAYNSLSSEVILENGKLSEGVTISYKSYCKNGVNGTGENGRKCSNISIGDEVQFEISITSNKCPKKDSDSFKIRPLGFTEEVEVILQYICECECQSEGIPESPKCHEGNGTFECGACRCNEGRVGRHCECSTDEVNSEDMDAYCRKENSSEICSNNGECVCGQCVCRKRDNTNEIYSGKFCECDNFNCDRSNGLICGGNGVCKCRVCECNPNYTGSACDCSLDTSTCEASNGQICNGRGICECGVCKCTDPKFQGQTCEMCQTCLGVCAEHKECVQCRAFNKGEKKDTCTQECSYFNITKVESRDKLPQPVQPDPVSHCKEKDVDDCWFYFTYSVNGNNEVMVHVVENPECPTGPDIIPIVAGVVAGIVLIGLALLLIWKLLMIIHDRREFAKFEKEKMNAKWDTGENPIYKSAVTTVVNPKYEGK
T1 sequence (P06756 31-889 limits assumed): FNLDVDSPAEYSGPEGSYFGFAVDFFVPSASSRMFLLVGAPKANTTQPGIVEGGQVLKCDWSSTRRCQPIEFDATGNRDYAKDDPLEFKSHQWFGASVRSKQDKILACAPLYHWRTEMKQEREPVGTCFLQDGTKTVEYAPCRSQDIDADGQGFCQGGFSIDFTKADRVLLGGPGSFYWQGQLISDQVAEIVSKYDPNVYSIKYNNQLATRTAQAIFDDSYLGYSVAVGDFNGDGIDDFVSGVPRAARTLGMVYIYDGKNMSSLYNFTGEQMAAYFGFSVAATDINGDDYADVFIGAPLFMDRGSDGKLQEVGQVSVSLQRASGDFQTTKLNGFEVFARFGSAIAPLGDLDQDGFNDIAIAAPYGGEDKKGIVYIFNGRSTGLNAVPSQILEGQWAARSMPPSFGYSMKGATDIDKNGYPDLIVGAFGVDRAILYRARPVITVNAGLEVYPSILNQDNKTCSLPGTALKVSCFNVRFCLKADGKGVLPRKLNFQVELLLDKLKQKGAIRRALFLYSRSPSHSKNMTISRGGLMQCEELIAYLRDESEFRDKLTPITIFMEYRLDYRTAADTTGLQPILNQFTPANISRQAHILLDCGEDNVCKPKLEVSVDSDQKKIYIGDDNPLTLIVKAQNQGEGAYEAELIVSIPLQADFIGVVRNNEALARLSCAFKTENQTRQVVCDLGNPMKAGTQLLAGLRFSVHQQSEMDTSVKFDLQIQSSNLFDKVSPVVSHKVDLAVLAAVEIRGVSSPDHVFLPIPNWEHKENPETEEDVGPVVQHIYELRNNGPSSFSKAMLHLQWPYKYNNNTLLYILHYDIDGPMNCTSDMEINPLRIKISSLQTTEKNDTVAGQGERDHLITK
T1 sequence (P06756 891-1048 partner limits assumed): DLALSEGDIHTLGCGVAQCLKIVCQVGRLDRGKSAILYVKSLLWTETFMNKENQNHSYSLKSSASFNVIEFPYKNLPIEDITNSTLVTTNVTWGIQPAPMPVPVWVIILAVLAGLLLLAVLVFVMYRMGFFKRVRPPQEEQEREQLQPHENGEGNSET
T1 sequence (P05106 27-788): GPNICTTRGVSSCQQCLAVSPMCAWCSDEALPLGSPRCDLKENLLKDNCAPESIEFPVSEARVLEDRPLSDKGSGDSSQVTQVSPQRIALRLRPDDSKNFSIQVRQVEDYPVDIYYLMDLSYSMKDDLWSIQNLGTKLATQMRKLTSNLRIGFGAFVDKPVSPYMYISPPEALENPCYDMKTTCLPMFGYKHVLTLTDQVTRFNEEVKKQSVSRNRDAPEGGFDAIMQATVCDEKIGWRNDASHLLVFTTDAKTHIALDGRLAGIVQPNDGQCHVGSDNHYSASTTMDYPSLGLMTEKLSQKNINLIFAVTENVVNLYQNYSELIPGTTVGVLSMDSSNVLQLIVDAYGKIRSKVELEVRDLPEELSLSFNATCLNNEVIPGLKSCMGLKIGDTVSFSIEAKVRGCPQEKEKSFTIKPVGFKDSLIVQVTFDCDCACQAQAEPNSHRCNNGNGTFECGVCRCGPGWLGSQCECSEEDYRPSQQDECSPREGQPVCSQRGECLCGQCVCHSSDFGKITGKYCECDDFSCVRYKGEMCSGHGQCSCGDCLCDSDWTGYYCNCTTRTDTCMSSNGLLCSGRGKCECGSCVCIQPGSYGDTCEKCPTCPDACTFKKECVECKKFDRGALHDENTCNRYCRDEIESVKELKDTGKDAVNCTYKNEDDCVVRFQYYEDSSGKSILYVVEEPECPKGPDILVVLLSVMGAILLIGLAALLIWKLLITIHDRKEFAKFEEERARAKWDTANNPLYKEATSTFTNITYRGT

Compound: C#CCCCC1C(C(=O)NCc2ccc(N)cc2)=C(C)ON1C(=O)CC(=O)O (centres unmarked) [Compound 8]
- EC50 (αvβ3 integrin [1]): 0.83 ± 0.05 µM
- αvβ3 behaviour (agonist/antagonist) (αvβ3 integrin [1]): agonist
- IC50 (α5β1 integrin [2]): > 1000 µM

Compound: CC1=C(C(=O)NCc2ccc(N)cc2)C(CCCc2cn(CCNC(=O)OC(C)(C)C)nn2)N(C(=O)CC(=O)O)O1 (centres unmarked) [Compound 17a]
- IC50 (αvβ3 integrin [1]): 0.88 ± 0.07 µM
- αvβ3 behaviour (agonist/antagonist) (αvβ3 integrin [1]): antagonist
- IC50 (α5β1 integrin [2]): 0.28 ± 0.03 µM
- α5β1 behaviour (agonist/antagonist) (α5β1 integrin [2]): antagonist

Compound: CC1=C(C(=O)NCc2ccc(N)cc2)C(CCCc2cn(CC(=O)OC(C)(C)C)nn2)N(C(=O)CC(=O)O)O1 (centres unmarked) [Compound 20a]
- EC50 (αvβ3 integrin [1]): 0.23 ± 0.08 µM
- αvβ3 behaviour (agonist/antagonist) (αvβ3 integrin [1]): agonist
- IC50 (α5β1 integrin [2]): > 1000 µM

Compound: CC1=C(C(=O)NCc2ccc(N)cc2)C(CCCc2cn(CCC(=O)OC(C)(C)C)nn2)N(C(=O)CC(=O)O)O1 (centres unmarked) [Compound 20b]
- EC50 (αvβ3 integrin [1]): 0.068 ± 0.011 µM
- αvβ3 behaviour (agonist/antagonist) (αvβ3 integrin [1]): agonist
- IC50 (α5β1 integrin [2]): > 1000 µM

Compound: CC1=C(C(=O)NCc2ccc(N)cc2)C(CCCc2cn(CCCNC(=O)CCC(=O)OC(C)(C)C)nn2)N(C(=O)CC(=O)O)O1 (centres unmarked) [Compound 24]
- ERK1/2-phosphorylation [3]: significant concentration dependent increase
- IC50 (αvβ3 integrin [1]): > 1000 µM
- EC50 (α5β1 integrin [2]): 6.59 ± 0.16 µM
- α5β1 behaviour (agonist/antagonist) (α5β1 integrin [2]): agonist
- α5β1 integrin internalization by compound alone (α5β1 integrin [4]): induced α5β1 internalization

Compound: CCOC(=O)CCCCn1cc(CCCC2C(C(=O)NCc3ccc(N)cc3)=C(C)ON2C(=O)CC(=O)O)nn1 (centres unmarked) [Compound 26]
- EC50 (αvβ3 integrin [1]): 0.61 ± 0.08 µM
- αvβ3 behaviour (agonist/antagonist) (αvβ3 integrin [1]): agonist
- IC50 (α5β1 integrin [2]): > 1000 µM

Compound: CC1=C(C(=O)NCc2ccc(N)cc2)C(CCCc2cn(CCOCCOCCNC(=O)OC(C)(C)C)nn2)N(C(=O)CC(=O)O)O1 (centres unmarked) [Compound 28]
- IC50 (αvβ3 integrin [1]): 8.84 ± 0.14 µM
- αvβ3 behaviour (agonist/antagonist) (αvβ3 integrin [1]): antagonist
- IC50 (α5β1 integrin [2]): > 1000 µM

Compound: CCOC(=O)COCCOCCn1cc(CCCC2C(C(=O)NCc3ccc(N)cc3)=C(C)ON2C(=O)CC(=O)O)nn1 (centres unmarked) [Compound 30]
- IC50 (αvβ3 integrin [1]): > 1000 µM
- IC50 (α5β1 integrin [2]): > 1000 µM

Compound: CC1=C(C(=O)NCc2ccc(N)cc2)C(C)N(C(=O)CC(=O)O)O1 (centres unmarked) [Ref A]
- IC50 (α5β1 integrin [5]): 0.012 ± 0.004 µM
- α5β1 IC50/EC50 (IC50 for antagonists) (α5β1 integrin [5]; cell adhesion to fibronectin): 0.012 ± 0.004 µM
- α5β1 behaviour (agonist/antagonist) (α5β1 integrin [5]): antagonist
- IC50 (αvβ3 integrin [6]): 0.032 ± 0.003 µM
- αvβ3 IC50/EC50 (IC50 for antagonists) (αvβ3 integrin [6]; cell adhesion to fibronectin): 0.032 ± 0.003 µM
- αvβ3 behaviour (agonist/antagonist) (αvβ3 integrin [6]): antagonist

Compound: CC1=C(C(=O)NCc2ccc(N)cc2)C(C(C)C)N(C(=O)CC(=O)O)O1 (centres unmarked) [Ref B]
- IC50 (α5β1 integrin [5]): 0.00105 ± 0.0003 µM
- α5β1 behaviour (agonist/antagonist) (α5β1 integrin [5]): antagonist
- IC50 (αvβ3 integrin [6]): 0.0088 ± 0.0006 µM
- αvβ3 IC50/EC50 (IC50 for antagonists) (αvβ3 integrin [6]; cell adhesion to fibronectin): 0.0088 ± 0.0006 µM
- αvβ3 behaviour (agonist/antagonist) (αvβ3 integrin [6]): antagonist

Compound: CCC(C)C1C(C(=O)NCc2ccc(N)cc2)=C(C)ON1C(=O)CC(=O)O (centres unmarked) [Ref C]
- IC50 (α5β1 integrin [5]): 1.32 ± 0.08 µM
- α5β1 IC50/EC50 (IC50 for antagonists) (α5β1 integrin [5]; cell adhesion to fibronectin): 1.320 ± 0.080 µM
- α5β1 behaviour (agonist/antagonist) (α5β1 integrin [5]): antagonist
- IC50 (αvβ3 integrin [6]): 0.36 ± 0.07 µM
- αvβ3 IC50/EC50 (IC50 for antagonists) (αvβ3 integrin [6]; cell adhesion to fibronectin): 0.360 ± 0.070 µM
- αvβ3 behaviour (agonist/antagonist) (αvβ3 integrin [6]): antagonist

Compound: CC1=C(C(=O)NCc2ccc(N)cc2)C(C2CCCCC2)N(C(=O)CC(=O)O)O1 (centres unmarked) [Ref D]
- IC50 (α5β1 integrin [5]): 1.03 ± 0.05 µM
- α5β1 IC50/EC50 (IC50 for antagonists) (α5β1 integrin [5]; cell adhesion to fibronectin): 1.030 ± 0.050 µM
- α5β1 behaviour (agonist/antagonist) (α5β1 integrin [5]): antagonist
- IC50 (αvβ3 integrin [6]): 0.02 ± 0.006 µM
- αvβ3 IC50/EC50 (IC50 for antagonists) (αvβ3 integrin [6]; cell adhesion to fibronectin): 0.020 ± 0.006 µM
- αvβ3 behaviour (agonist/antagonist) (αvβ3 integrin [6]): antagonist

Compound: Cc1ccccc1NC(=O)N1C(=O)CC1CC(=O)NCC(=O)O (centres unmarked) [Ref E, 2-(2-(4-Oxo-(o-tolylcarbamoyl)azetidin-2-yl)acetamido)acetic acid]
- α5β1 IC50/EC50 (EC50 for agonists) (α5β1 integrin [5]; cell adhesion to fibronectin): 0.0129 ± 0.0006 µM
- α5β1 behaviour (agonist/antagonist) (α5β1 integrin [5]): agonist
- αvβ3 IC50/EC50 (αvβ3 integrin [6]; cell adhesion to fibronectin): >1000 µM

Compound: Ac-Asp-Arg-Leu-Asp-Ser-OH (Ac-DRLDS-OH) [standard antagonist of cell adhesion mediated by αvβ3 integrin]
- α5β1 IC50/EC50 (α5β1 integrin [5]; reference compound): >1000 µM
- αvβ3 IC50/EC50 (IC50 for antagonists) (αvβ3 integrin [6]; reference compound): 0.025 ± 0.003 µM
- αvβ3 behaviour (agonist/antagonist) (αvβ3 integrin [6]): antagonist

Compound: H-Gly-Arg-Gly-Asp-Thr-Pro-OH (H-GRGDTP-OH) [standard antagonist of cell adhesion mediated by α5β1 integrin]
- α5β1 IC50/EC50 (IC50 for antagonists) (α5β1 integrin [5]; reference compound): 0.00062 ± 0.00009 µM
- α5β1 behaviour (agonist/antagonist) (α5β1 integrin [5]): antagonist
- αvβ3 IC50/EC50 (IC50 for antagonists) (αvβ3 integrin [6]; reference compound): 0.926 ± 0.006 µM
- αvβ3 behaviour (agonist/antagonist) (αvβ3 integrin [6]): antagonist
